Reference: patent US10464947B2 (Incyte Corporation, priority 2013, dated 2019)

The compounds below were run on KMS.12.BM cells (assay: KMS.12.BM Cell Viability Assay (Example B1)). Conditions: 3 days, Cell Titer-GLO, read-out: KMS cellular IC50.
Type: cell-based, human
Description: KMS.12.BM cell line (human myeloma) was purchased from JCRB (Osaka, Japan) and maintained in RPMI with 10% FBS culture medium. To measure the cytotoxic activity of the compounds through ATP quantitation, the KMS.12.BM cells are plated in the RPMI culture medium at 5000 cells/well/per 100 μL into a 96-well polystyrene clear black tissue culture plate (Greiner-bio-one through VWR, NJ), in the presence or absence of a concentration range of test compounds. After 3 days, […] Cell Titer-GLO Luminescent (Promega, Madison, Wis.) cell culture agent is added to each well for 10 min. at room temperature to stabilize the luminescent signal. This determines the number of viable cells in culture based on quantitation of the ATP present, which signals the presence of metabolically active cells.

Row | Structure (SMILES) | IC50 [µM]
1 | Cc1noc(C)c1-c1ccc2[nH]c(=O)n3c2c1OCC3C1CCCO1 (single isomer, unassigned) [Example 18B, 7-(3,5-Dimethylisoxazol-4-yl)-4-(tetrahydrofuran-2-yl)-4,5-dihydroimidazo[1,5,4-de][1,4]benzoxazin-2(1H)-one] | < 1
2 | Cc1noc(C)c1-c1ccc2nc(NC(C)CO)n3c2c1OCC3c1ccccc1 (single isomer, unassigned) [Example 31, 2-{[7-(3,5-Dimethylisoxazol-4-yl)-4-phenyl-4,5-dihydroimidazo[1,5,4-de][1,4]benzoxazin-2-yl]amino}propan-1-ol] | < 1
3 | Cc1noc(C)c1-c1ccc2[nH]c(=O)n3c2c1OC(CO)C3c1ccccn1 (single isomer, unassigned) [Example 62C, 7-(3,5-Dimethylisoxazol-4-yl)-5-(hydroxymethyl)-4-pyridin-2-yl-4,5-dihydroimidazo[1,5,4-de][1,4]benzoxazin-2(1H)-one] | < 1
4 | Cc1noc(C)c1-c1cc(C(C)O)c2[nH]c(=O)n3c2c1OC[C@@H]3c1ccccn1 (single isomer, unassigned) [Example 144B] | < 1
5 | Cc1noc(C)c1-c1ccc2nc(N3CCC(C)(O)C3)n3c2c1OC[C@@H]3c1ccccn1 (single isomer, unassigned) [Example 146B] | < 1

Same assay, conditions: Homo sapiens, 72 h, 3 days, Cell Titer-GLO, read-out: KMS cellular IC50

Row | Structure (SMILES) | IC50 [µM]
6 | COC(=O)c1ncccc1C1COc2c(-c3c(C)noc3C)ccc3[nH]c(=O)n1c23 (racemic) [Example 132, Methyl 3-[7-(3,5-dimethylisoxazol-4-yl)-2-oxo-1,2,4,5-tetrahydroimidazo[1,5,4-de][1,4]benzoxazin-4-yl]pyridine-2-carboxylate] | < 1
7 | Cc1noc(C)c1-c1ccc2[nH]c(=O)n3c2c1OCC3C1CCCO1 (single isomer, unassigned) [Example 18A, 7-(3,5-Dimethylisoxazol-4-yl)-4-(tetrahydrofuran-2-yl)-4,5-dihydroimidazo[1,5,4-de][1,4]benzoxazin-2(1H)-one] | < 1
8 | Cc1noc(C)c1-c1ccc2[nH]c(=O)n3c2c1OC(C(=O)NCCO)C3c1ccccc1 (single isomer, unassigned) [Example 48B, 7-(3,5-Dimethylisoxazol-4-yl)-N-(2-hydroxyethyl)-2-oxo-4-phenyl-1,2,4,5-tetrahydroimidazo[1,5,4-de][1,4]benzoxazine-5-carboxamide] | 1 to 10
9 | Cc1noc(C)c1-c1ccc2[nH]c(=O)n3c2c1OC(CO)C3c1ccccn1 (single isomer, unassigned) [Example 62B, 7-(3,5-Dimethylisoxazol-4-yl)-5-(hydroxymethyl)-4-pyridin-2-yl-4,5-dihydroimidazo[1,5,4-de][1,4]benzoxazin-2(1H)-one] | < 1
10 | Cc1noc(C)c1-c1cc(Br)c2[nH]c(=O)n3c2c1OCC3c1ccccn1 (single isomer, unassigned) [Example 267B, 9-bromo-7-(3,5-dimethylisoxazol-4-yl)-4-pyridin-2-yl-4,5-dihydroimidazo[1,5,4-de][1,4]benzoxazin-2(1H)-one] | < 1
11 | Cc1noc(C)c1-c1ccc2[nH]c(=O)n3c2c1OCC3c1ccccc1 (stereo not shown) [Example 1, 7-(3,5-Dimethylisoxazol-4-yl)-4-phenyl-4,5-dihydroimidazo[1,5,4-de][1,4]benzoxazin-2(1H)-one] | < 1
12 | COc1cccc(C2COc3c(-c4c(C)noc4C)ccc4[nH]c(=O)n2c34)c1 (stereo not shown) [Example 6, 7-(3,5-Dimethylisoxazol-4-yl)-4-(3-methoxyphenyl)-4,5-dihydroimidazo[1,5,4-de][1,4]benzoxazin-2(1H)-one] | < 1
13 | Cc1n[nH]cc1-c1ccc2[nH]c(=O)n3c2c1OCC3c1ccccc1 (stereo not shown) [Example 12, 7-(3-Methyl-1H-pyrazol-4-yl)-4-phenyl-4,5-dihydroimidazo[1,5,4-de][1,4]benzoxazin-2(1H)-one] | 1 to 10
14 | Cc1noc(C)c1-c1ccc2[nH]c(=O)n3c2c1OCC3c1cccc[n+]1[O-] (stereo not shown) [Example 16, 7-(3,5-Dimethylisoxazol-4-yl)-4-(1-oxidopyridin-2-yl)-4,5-dihydroimidazo[1,5,4-de][1,4]benzoxazin-2(1H)-one] | < 1
15 | Cc1noc(C)c1-c1ccc2[nH]c(=O)n3c2c1OCC3C1CCCCC1 (stereo not shown) [Example 17, 4-Cyclohexyl-7-(3,5-dimethylisoxazol-4-yl)-4,5-dihydroimidazo[1,5,4-de][1,4]benzoxazin-2(1H)-one] | < 1
16 | Cc1noc(C)c1-c1ccc2[nH]c(=O)n3c2c1OCC3c1ccc(F)cn1 (stereo not shown) [Example 19, 7-(3,5-Dimethylisoxazol-4-yl)-4-(5-fluoropyridin-2-yl)-4,5-dihydroimidazo[1,5,4-de][1,4]benzoxazin-2(1H)-one] | < 1

Same assay, conditions: Homo sapiens, KMS-12-BM, 72 h, 3 days, Cell Titer-GLO, read-out: KMS cellular IC50

Row | Structure (SMILES) | IC50 [µM]
17 | Cc1noc(C)c1-c1ccc2c3c1CCC(c1ccccc1)n3c(=O)n2C (racemic) [Example 121, 7-(3,5-Dimethylisoxazol-4-yl)-1-methyl-4-phenyl-5,6-dihydro-4H-imidazo[4,5,1-ij]quinolin-2(1H)-one] | < 1
18 | Cc1noc(C)c1-c1ccc2[nH]c(=O)n3c2c1OCC3c1cccnc1C#N (racemic) [Example 126, 3-[7-(3,5-Dimethylisoxazol-4-yl)-2-oxo-1,2,4,5-tetrahydroimidazo[1,5,4-de][1,4]benzoxazin-4-yl]pyridine-2-carbonitrile] | < 1
19 | Cc1noc(C)c1-c1ccc2nc(N3CCC(C)(O)C3)n3c2c1OC[C@@H]3c1ccccn1 (mixture of isomers) [Example 146C, 1-[(4S)-7-(3,5-Dimethylisoxazol-4-yl)-4-pyridin-2-yl-4,5-dihydroimidazo[1,5,4-de][1,4]benzoxazin-2-yl]-3-methylpyrrolidin-3-ol] | < 1
20 | Cc1noc(C)c1-c1ccc2[nH]c(=O)n3c2c1OC(C(=O)N(C)C)C3c1ccccc1 (single isomer, unassigned) [Example 47B, 7-(3,5-Dimethylisoxazol-4-yl)-N,N-dimethyl-2-oxo-4-phenyl-1,2,4,5-tetrahydroimidazo[1,5,4-de][1,4]benzoxazine-5-carboxamide] | 1 to 10
21 | Cc1noc(C)c1-c1ccc2[nH]c(=O)n3c2c1OC(C)(C)C3c1ccccn1 (single isomer, unassigned) [Example 61A, 7-(3,5-Dimethylisoxazol-4-yl)-5,5-dimethyl-4-pyridin-2-yl-4,5-dihydroimidazo[1,5,4-de][1,4]benzoxazin-2(1H)-one] | < 1
22 | Cc1noc(C)c1-c1ccc2[nH]c(=O)n3c2c1OCC3C1CCCCN1 (single isomer, unassigned) [Example 63A, 7-(3,5-Dimethylisoxazol-4-yl)-4-piperidin-2-yl-4,5-dihydroimidazo[1,5,4-de][1,4]benzoxazin-2(1H)-one 2,2,2-trifluoroacetate] | 1 to 10
23 | Cc1noc(C)c1-c1ccc2nc(N3CCC(C)(O)C3)n3c2c1OC[C@@H]3c1ccccn1 (single isomer, unassigned) [Example 146A] | < 1
24 | Cc1noc(C)c1-c1cc(Cl)c2[nH]c(=O)n3c2c1OCC3c1ccccn1 (single isomer, unassigned) [Example 266A, 9-chloro-7-(3,5-dimethylisoxazol-4-yl)-4-pyridin-2-yl-4,5-dihydroimidazo[1,5,4-de][1,4]benzoxazin-2(1H)-one] | < 1
25 | CCOC(=O)C1Oc2c(-c3c(C)noc3C)ccc3[nH]c(=O)n(c23)C1c1ccccn1 (stereo not shown) [Example 20, Ethyl 7-(3,5-dimethylisoxazol-4-yl)-2-oxo-4-pyridin-2-yl-1,2,4,5-tetrahydroimidazo[1,5,4-de][1,4]benzoxazine-5-carboxylate] | < 1
